# Test results reported in paper PMC8210154, “Tumor-selective, antigen-independent delivery of a pH sensitive peptide-topoisomerase inhibitor conjugate suppresses tumor growth without systemic toxicity” (NAR Cancer, 2021).
# Changes are numbered by the printed parent chain. Entries after “also recorded” stand apart in the source; their conditions may differ.
# Key:
# HCT116 cells = assay: In vitro cell killing, HCT116 cells; type: cell-based; settings: Homo sapiens, HCT-116, data not shown
# Description: (§1) Microplate-based short-term viability and synergy assays were performed as described previously ([18]).
# [1] = test system: γH2AX in HCT116 flank tumors; assay: γH2AX immunofluorescence assay in HCT116 flank tumors; type: in vivo, mice; settings: 1.15 mg/kg exatecan, P < 0.001
# Description: Tumors were collected as detailed above, and FFPE tumor slides were created for IF staining. Antigen retrieval was performed using a heat-induced epitope retrieval (HIER) method, with TRIS-EDTA pH 9.0. Staining with primary antibody (mouse anti-human γH2AX; 1:500, Invitrogen) followed by secondary antibody (Goat anti-mouse Ax594; 1:1000, Invitrogen) was then performed. Images were obtained with a Keyence imager. Data analysis was performed in ImageJ and CellProfiler ([16]). Raincloud plots and heatmap were generated in R version 4.0.3 ([17]). Statistical analysis for γH2AX expression was performed using Kruskal–Wallis test, followed by Dunn's multiple comparison test (GraphPad Prism 9.1.0).
# MKN45 xenografts = assay: MKN45 xenograft in nude mice; settings: MKN45 flank model, 2.3 mg/kg (equimolar to 20 mg/kg CBX-12)
# [2] = Toxicity in mice (bone marrow cell counts, body weight, stomachs)
# Description: Following tumor collection, mice were euthanized by cervical dislocation under anesthesia in accordance with the American Veterinary Medical Association (AVMA) Guidelines for the Euthanasia of Animals. Femurs were removed, and bone marrow was extruded into 50 mL conical tubes by flushing the bones with a 23-gauge needle fitted on a 5cc syringe containing PBS + 2% fetal bovine serum (FBS). Bone marrow was homogenized by gentle pipetting and filtered through 100 μm nylon mesh filters and cells were pelleted by centrifugation at 1200 rpm for 5 min at 4°C. Red blood cells were lysed with 3 mL of lysis buffer for 2 min at room temperature. PBS was added to a volume of 25 mL and cells were re-pelleted by centrifugation as described above. Cell pellets were suspended in 5 mL of PBS and cell count was assessed by trypan blue exclusion on a TC-20 cell counter (BioRad).
# [3] = target: T1, TOP1 protein levels in HCT116 cells (Homo sapiens, UniProt P11387); assay: TOP1 FACS assay, HCT116 cells dosed in vitro; type: cell-based; settings: 24 h, read-out: IC50 for TOP1 protein levels
# T1 construct: endogenous in cells; host or cells: HCT116 cells
# T1 sequence (P11387 1-765): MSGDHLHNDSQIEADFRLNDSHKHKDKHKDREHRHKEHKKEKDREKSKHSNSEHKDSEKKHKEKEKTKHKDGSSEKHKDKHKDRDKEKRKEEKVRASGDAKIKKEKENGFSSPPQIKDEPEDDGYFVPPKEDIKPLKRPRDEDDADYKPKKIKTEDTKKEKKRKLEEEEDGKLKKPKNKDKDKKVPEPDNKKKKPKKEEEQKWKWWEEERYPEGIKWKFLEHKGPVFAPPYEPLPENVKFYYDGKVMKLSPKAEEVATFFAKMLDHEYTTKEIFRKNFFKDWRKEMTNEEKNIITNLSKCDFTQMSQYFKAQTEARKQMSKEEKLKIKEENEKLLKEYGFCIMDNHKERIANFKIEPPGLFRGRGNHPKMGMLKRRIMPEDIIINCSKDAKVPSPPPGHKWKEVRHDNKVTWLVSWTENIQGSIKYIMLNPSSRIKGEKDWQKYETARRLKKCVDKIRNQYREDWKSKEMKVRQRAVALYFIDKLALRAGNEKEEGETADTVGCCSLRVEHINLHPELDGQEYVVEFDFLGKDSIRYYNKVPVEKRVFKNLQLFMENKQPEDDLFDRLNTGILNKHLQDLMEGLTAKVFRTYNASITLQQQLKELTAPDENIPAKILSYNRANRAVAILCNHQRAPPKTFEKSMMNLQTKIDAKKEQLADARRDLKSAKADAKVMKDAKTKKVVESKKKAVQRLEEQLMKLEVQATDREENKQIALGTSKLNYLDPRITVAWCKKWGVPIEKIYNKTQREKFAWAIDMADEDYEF
# Description: HCT116 cells were plated at 2.5 × 10^5/mL in 2 mL DMEM^+ in six-well plates. Cells were allowed to attach overnight in 37°C incubator before compound addition. […] Cells were scraped, washed with PBS and counted.
# (§2) Tumor and bone marrow cells collected 24 h after dosing were permeabilized and fixed for 20 min on ice in the dark (Cytofix/Cytoperm Becton Dickinson; #554714), then washed 2× with Perm Wash. Cells were stained with rabbit anti-topoisomerase 1 antibody (Abcam; #109374) at 1 μg/ml on ice in the dark for 30 min and washed 2×, followed by staining with secondary antibody goat anti-rabbit IgG AF647 (Jackson ImmunoResearch; #111-605-144 diluted 1:1000) on ice in dark for 30 min. After a final 2× wash, the reduction of topoisomerase I (TOP1) protein levels was evaluated by collecting 10,000 (tumor) or 30,000 (BM) cells and determining the number of TOP1 positive stained cells on a BD Accuri™ flow cytometer.
# MDA-MB-231 cells [4] = assay: Short-term viability assay, MDA-MB-231 cells; type: cell-based; settings: Homo sapiens
# Description: as §1
# [5] = target: T2, TOP1 protein levels in bone marrow (Mus musculus, UniProt Q04750); assay: TOP1 FACS assay, bone marrow of dosed mice; type: in vivo; settings: 2.5 μmol/kg for 4 days, 24 h post last dose
# T2 construct: Mouse bone marrow cells were isolated as described above; from tissue; host or cells: bone marrow of athymic nude mice bearing HCT116 xenografts
# T2 sequence (Q04750 1-767): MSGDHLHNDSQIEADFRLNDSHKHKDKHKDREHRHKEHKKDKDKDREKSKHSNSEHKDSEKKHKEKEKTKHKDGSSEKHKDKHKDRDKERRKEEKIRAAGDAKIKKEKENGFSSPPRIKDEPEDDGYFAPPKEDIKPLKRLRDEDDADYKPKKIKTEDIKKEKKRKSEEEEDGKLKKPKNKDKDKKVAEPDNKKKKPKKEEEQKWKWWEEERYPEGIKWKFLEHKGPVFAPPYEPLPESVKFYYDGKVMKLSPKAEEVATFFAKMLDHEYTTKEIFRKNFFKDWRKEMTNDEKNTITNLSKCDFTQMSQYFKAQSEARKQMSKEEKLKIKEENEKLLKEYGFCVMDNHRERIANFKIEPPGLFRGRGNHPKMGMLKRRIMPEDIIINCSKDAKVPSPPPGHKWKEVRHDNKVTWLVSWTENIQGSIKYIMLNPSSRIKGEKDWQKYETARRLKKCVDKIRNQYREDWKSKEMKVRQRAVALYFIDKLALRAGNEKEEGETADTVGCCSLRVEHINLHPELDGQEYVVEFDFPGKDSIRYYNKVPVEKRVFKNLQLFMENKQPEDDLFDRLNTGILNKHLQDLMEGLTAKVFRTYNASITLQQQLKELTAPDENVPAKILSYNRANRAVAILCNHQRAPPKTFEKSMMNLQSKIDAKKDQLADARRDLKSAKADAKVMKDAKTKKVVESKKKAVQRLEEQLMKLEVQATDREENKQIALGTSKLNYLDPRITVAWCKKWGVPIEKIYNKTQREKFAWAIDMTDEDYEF
# Description: Mouse bone marrow cells were isolated as described above.
# as §2
# MDA-MB-231 cells [6] = assay: Synergy assay (Bliss) exatecan with talazoparib, MDA-MB-231 cells; type: cell-based, human; settings: Bliss synergy analysis
# [7] = target: T3, TOP1 protein levels in HCT116 tumor tissue (Homo sapiens, UniProt P11387); assay: TOP1 FACS assay, HCT116 xenografted tumor of dosed mice; type: in vivo; settings: 2.5 μmol/kg for 4 days, 24 h post last dose
# T3 construct: Xenograft tumors were excised, weighed, and minced then were digested to single cells; from tissue; host or cells: HCT116 xenograft tumors from athymic nude mice
# T3 sequence (P11387 1-765): T1 sequence (P11387 1-765)
# Description: The vials capped and vortexed for 2 min.
# Xenograft tumors were excised, weighed, and minced then were digested to single cells with an enzyme mix (Miltenyi; #130-095-929) for 40 min shaking at 37°C. Enzymes were inactivated by adding equal volume of DMEM^+. Digested cells were sequentially filtered through 70 μm then 40 μm filters and centrifuged at 700 rpm for 7 min at 4°C.
# as §2
# [8] = target: T4, TOP1 protein levels in rat bone marrow cells (Rattus norvegicus, UniProt Q9WUL0); assay: TOP1 FACS assay, rat bone marrow cells dosed ex vivo; type: cell-based; settings: rat bone marrow cells in vitro, 24 h; read-out: IC50 for TOP1 protein levels
# T4 construct: from tissue; host or cells: rat bone marrow cells, dosed ex vivo
# T4 sequence (Q9WUL0 1-767): T2 sequence (Q04750 1-767) with E77D, R90K, L141P, S167L, P197A, S239G, R665K
# Description: Naïve Sprague-Dawley rat bone marrow cells were plated at 1 × 10^6/ml in 2 mL of RPMI^+ in six-well plates. Cells were allowed to incubate for 3 h at 37°C before compound addition. […] Cells were harvested, washed with PBS and counted.
# as §2
# [9] = Toxicity in rats (body weight, duodenum H&E histology); type: in vivo
# Excerpt: Duodenal tissue samples were fixed in 10% neutral buffered formalin, processed and embedded in paraffin. Tissue cross sections (5 μm) were mounted on positively charged microscope slides and stained with hematoxylin and eosin (H&E) (PolyScientific R&D, New York). Images were taken of tissue sections by standard light microscopy using an EVOS FL Cell Imaging System (Life Technologies) for histomorphological evaluation of intestinal inflammation.
smiles,measurement,setting,value
CC[C@@]1(O)C(=O)OCc2c1cc1n(c2=O)Cc2c-1nc1cc(F)c(C)c3c1c2[C@@H](N)CC3 [exatecan],IC50,HCT116 cells,0.2 nM
same,γH2AX expression after second cycle compared to first cycle,[1],significant higher γH2AX expression; also recorded: significantly higher γH2AX expression
same,tolerability,MKN45 xenografts,not tolerated and was lethal in all animals
same,body weight,[2]; mice (Figure 3B),significant and unrecoverable body weight reductions
same,bone marrow cell counts,"[2]; mice, equimolar doses",drastic bone marrow suppression
same,DC50,[3],24.8 nM
same,IC50,MDA-MB-231 cells [4],0.21 nM
same,TOP1 protein levels in bone marrow,[5],decreased
same,interaction when combined with talazoparib,MDA-MB-231 cells [6],robust synergy
same,TOP1 protein levels in HCT116 flank tumor tissue,[7],decreased
same,DC50,[8],27.3 nM
same,GI toxicity microscopically (H&E of duodenum),"[9]; rat, in vivo",significant GI toxicity
same,body weight,[9]; rats (Figure 3C),significant and unrecoverable body weight reductions
